Assay results reported in patent US8314215B2, “Mild chemically cleavable linker system” (The Board of Trustees of the Leland Stanford Junior …, priority 2006, dated 2012).

Assays:
Assay in all cases: LC/MS/MS identification of proteins from mouse liver extracts labeled with MTS-I-49
Format in all cases: biochemical
[1] = target: T1, Liver carboxylesterase 4 (Mus musculus, UniProt Q91WU0)
T1 construct: from tissue; host or cells: mouse liver extract
T1 sequence (Q91WU0 18-561): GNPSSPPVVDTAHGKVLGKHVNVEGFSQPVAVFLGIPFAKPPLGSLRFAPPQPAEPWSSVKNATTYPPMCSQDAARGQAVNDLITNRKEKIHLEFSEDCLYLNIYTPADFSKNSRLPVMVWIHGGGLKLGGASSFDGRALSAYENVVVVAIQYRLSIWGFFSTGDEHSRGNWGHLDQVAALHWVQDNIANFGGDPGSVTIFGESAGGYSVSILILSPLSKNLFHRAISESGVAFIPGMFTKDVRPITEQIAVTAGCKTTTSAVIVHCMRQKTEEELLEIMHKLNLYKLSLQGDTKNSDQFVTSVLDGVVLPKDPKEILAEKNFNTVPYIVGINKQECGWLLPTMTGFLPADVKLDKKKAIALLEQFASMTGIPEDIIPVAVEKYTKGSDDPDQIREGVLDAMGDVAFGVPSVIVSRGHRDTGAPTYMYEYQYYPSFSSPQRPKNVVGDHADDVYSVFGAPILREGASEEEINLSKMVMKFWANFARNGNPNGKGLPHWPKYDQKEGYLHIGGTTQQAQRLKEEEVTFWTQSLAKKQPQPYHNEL
Excerpt: (§1) (1991) Irreversible inhibition of serine proteases by peptide derivatives of (alpha-aminoalkyl)phosphonate diphenyl esters. Biochemistry 30, 485-493). However, it has not been used for any proteomic applications. We used MTS-I-49 to label mouse liver extracts and analyze the labeled sample by both SDS-PAGE (FIG. 5B) and by direct chemical cleavage or on bead digestion.
(§2) After enrichment on immobilized avidin, each of the three labeled proteomes (FIG. 5b) was divided into two aliquots. One was prepared for LC-MS/MS analysis by “on bead” digestion, while the other was chemically eluted and digested “in solution.” Proteins identified in each tissue lysate are listed with their accession number and theoretical molecular weight (MW). To compare both approaches, the number of identified peptides and percentage of amino acid sequence coverage is listed for each protein.
(§3) Proteins in the above Table were identified by LC/MS/MS analysis of on bead digested or chemically eluted proteins from mouse liver extracts labeled with MTS-I-49. […] BLAST database searching identified it as liver carboxylesterase 4. A number of additional endogenously biotinylated proteins were identified in the on-bead digested sample.

[2] = system: acetyl-Coenzyme A dehydrogenase
Excerpt: as §1, §2, §3

[3] = target: T2, alcohol dehydrogenase 1 (Mus musculus, UniProt P00329)
T2 construct: from tissue; host or cells: mouse liver extract
Excerpt: as §1, §2, §3

[4] = target: T3, betaine-homocysteine methyltransferase (Mus musculus, UniProt O35490)
T3 construct: from tissue; host or cells: mouse liver extract
T3 sequence (O35490 1-407): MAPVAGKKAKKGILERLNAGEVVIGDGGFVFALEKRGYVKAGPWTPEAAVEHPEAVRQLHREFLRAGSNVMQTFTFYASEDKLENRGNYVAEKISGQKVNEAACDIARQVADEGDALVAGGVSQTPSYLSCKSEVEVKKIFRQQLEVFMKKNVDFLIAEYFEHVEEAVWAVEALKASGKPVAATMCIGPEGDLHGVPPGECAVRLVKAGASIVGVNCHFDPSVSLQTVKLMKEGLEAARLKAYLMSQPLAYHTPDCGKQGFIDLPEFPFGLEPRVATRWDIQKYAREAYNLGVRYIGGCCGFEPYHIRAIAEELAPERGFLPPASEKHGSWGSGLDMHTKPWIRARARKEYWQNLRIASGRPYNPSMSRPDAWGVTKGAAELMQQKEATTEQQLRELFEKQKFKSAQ
Excerpt: as §1, §2, §3

[5] = system: carbonmonoxy hemoglobin
Excerpt: as §1, §2, §3

[6] = system: fructose-bisphosphate aldolase
Excerpt: as §1, §2, §3

[7] = target: T4, glyceraldehyde-3-phosphate dehydrogenase (Mus musculus, UniProt P16858)
T4 construct: from tissue; host or cells: mouse liver extract
Excerpt: as §1, §2, §3

[8] = target: T5, hemoglobin alpha 1 (Mus musculus, UniProt P01942)
T5 construct: from tissue; host or cells: mouse liver extract
Excerpt: as §1, §2, §3

[9] = target: T6, peroxisomal acyl-CoA oxidase (Mus musculus, UniProt Q9R0H0)
T6 construct: from tissue; host or cells: mouse liver extract
T6 sequence (Q9R0H0 1-661): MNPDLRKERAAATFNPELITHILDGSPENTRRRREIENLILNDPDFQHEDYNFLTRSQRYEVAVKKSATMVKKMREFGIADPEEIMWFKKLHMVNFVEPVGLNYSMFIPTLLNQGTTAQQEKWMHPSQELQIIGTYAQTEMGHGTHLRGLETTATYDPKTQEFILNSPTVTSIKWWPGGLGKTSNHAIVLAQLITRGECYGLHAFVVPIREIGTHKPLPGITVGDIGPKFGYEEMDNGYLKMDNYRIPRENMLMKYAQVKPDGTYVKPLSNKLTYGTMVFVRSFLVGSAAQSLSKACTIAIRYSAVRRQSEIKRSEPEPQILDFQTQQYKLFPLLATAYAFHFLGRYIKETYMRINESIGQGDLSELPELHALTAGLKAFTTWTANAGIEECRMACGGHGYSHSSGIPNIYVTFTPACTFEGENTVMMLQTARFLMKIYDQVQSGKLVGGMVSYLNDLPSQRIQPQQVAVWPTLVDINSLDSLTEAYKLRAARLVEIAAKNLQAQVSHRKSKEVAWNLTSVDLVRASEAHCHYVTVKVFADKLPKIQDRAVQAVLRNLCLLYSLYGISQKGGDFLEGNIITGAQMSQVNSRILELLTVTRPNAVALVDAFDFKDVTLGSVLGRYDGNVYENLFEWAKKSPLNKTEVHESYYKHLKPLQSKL
Excerpt: as §1, §2, §3

[10] = Liver carboxylesterase 4, chemically eluted, digested in solution
[11] = Liver carboxylesterase 4, on bead digestion
[12] = chemically eluted, digested in solution

T4 sequence (P16858 whole entry): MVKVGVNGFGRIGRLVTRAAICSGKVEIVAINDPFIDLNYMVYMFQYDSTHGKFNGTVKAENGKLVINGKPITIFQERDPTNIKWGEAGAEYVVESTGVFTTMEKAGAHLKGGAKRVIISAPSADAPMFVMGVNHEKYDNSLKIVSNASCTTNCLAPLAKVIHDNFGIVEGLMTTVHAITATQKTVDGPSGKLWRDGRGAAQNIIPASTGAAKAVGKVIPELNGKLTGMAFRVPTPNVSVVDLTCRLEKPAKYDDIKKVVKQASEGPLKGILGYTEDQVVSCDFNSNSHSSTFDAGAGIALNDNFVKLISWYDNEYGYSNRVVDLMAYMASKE
T5 sequence (P01942 2-142 limits assumed): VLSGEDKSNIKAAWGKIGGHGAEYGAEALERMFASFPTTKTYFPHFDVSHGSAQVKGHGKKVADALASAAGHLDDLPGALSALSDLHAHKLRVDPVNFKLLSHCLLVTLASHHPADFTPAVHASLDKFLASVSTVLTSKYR
T5 sequence (P02088 2-147 partner limits assumed): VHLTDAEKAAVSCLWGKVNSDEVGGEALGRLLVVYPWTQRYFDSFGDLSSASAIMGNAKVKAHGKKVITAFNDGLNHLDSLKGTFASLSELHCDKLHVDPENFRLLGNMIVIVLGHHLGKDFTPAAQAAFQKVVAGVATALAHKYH
T2 sequence (P00329 whole entry): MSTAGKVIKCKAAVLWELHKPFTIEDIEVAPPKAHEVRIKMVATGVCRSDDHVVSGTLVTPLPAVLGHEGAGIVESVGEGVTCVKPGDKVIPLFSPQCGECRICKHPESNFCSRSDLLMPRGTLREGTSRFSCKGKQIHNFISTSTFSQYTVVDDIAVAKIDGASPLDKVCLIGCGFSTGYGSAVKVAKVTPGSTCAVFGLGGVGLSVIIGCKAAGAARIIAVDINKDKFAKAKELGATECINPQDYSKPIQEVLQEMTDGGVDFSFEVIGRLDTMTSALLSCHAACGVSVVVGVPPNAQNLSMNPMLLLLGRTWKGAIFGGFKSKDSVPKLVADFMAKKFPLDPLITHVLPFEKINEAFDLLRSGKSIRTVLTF

Which “Chemical Cleavage, amino acid sequence coverage” value [1, 10] does the source give for C[C@H](NC(=O)c1ccc(N=Nc2cc(CCNC(=O)CCCC[C@@H]3SC[C@@H]4NC(=O)N[C@@H]43)ccc2O)cc1)C(=O)N[C@@H](C)C(=O)NC(Cc1ccccc1)P(=O)(Oc1ccccc1)Oc1ccccc1 (some centres unmarked) [MTS-I-49] here?
The value was 38%.

And the “Chemical Cleavage, number of identified peptides” value (from here on “Chemical Cleavage, number”) [1, 10]?
Its value is 14.

And the “On Bead Digestion, amino acid sequence coverage” value [1, 11]?
Its value is 51%.

What about the “On Bead Digestion, number of identified peptides” value (“On Bead Digestion, number” below) [1, 11] of the same molecule?
The value was 20.

And the “target identification after chemical cleavage” value ([1]; mouse liver extracts, hypothetical protein identified by BLAST as liver carboxylesterase 4)?
The value was “primary probe target”.

And the “Chemical Cleavage, number” value [2, 12]?
The value was 0.

What about the “On Bead Digestion, amino acid sequence coverage” value ([2]; on bead digestion) of the same molecule?
Its value is 34%.

And the “On Bead Digestion, number” value ([2]; on bead digestion)?
The value was 3.

And the “Chemical Cleavage, number” value [3, 12]?
Its value is 0.

And the “On Bead Digestion, amino acid sequence coverage” value ([3]; on bead digestion)?
The value was 20%.

What about the “On Bead Digestion, number” value ([3]; on bead digestion) of the same molecule?
Its value is 3.

And the “Chemical Cleavage, number” value [4, 12]?
The value was 0.

What about the “On Bead Digestion, amino acid sequence coverage” value ([4]; on bead digestion) of the same molecule?
Its value is 19%.

What about the “On Bead Digestion, number” value ([4]; on bead digestion) of the same molecule?
Its value is 4.

What about the “Chemical Cleavage, number” value [5, 12] of the same molecule?
Its value is 0.

And the “On Bead Digestion, amino acid sequence coverage” value ([5]; on bead digestion)?
Its value is 68%.

What about the “On Bead Digestion, number” value ([5]; on bead digestion) of the same molecule?
Its value is 7.

What about the “Chemical Cleavage, number” value [6, 12] of the same molecule?
Its value is 0.

And the “On Bead Digestion, amino acid sequence coverage” value ([6]; on bead digestion)?
Its value is 6%.

And the “On Bead Digestion, number” value ([6]; on bead digestion)?
The value was 2.

What about the “Chemical Cleavage, number” value [7, 12] of the same molecule?
Its value is 0.

What about the “On Bead Digestion, amino acid sequence coverage” value ([7]; on bead digestion) of the same molecule?
The value was 10%.

And the “On Bead Digestion, number” value ([7]; on bead digestion)?
Its value is 2.

What about the “Chemical Cleavage, number” value [8, 12] of the same molecule?
The value was 0.

What about the “On Bead Digestion, amino acid sequence coverage” value ([8]; on bead digestion) of the same molecule?
The value was 25%.

And the “On Bead Digestion, number” value ([8]; on bead digestion)?
The value was 3.

What about the “Chemical Cleavage, number” value [9, 12] of the same molecule?
Its value is 0.

What about the “On Bead Digestion, amino acid sequence coverage” value ([9]; on bead digestion) of the same molecule?
The value was 4%.

And the “On Bead Digestion, number” value ([9]; on bead digestion)?
The value was 2.
